Source: patent publication US9056104B2, “Dynamic inhibitors of heat shock protein 90” (THE UNIVERSITY OF KANSAS, priority 2011, dated 2015)
Like-named read-outs stand apart in the source and are kept apart here.

Key:
[1] = tested on: HSP90-dependent client proteins (Her-2, Raf, Akt); assay: Western blot analyses of HSP90 client protein degradation in MCF-7 breast cancer cells; format: cell-based; settings: MCF-7 lysates, 24 hour treatment, 5x and 1/2 of antiproliferative IC50; actin control
Protocol: Since actin is not dependent on HSP90 for its maturation, actin levels should remain constant after treatment with an HSP90 inhibitor and is therefore used as a control. […] L represents a concentration ½ of the anti-proliferative IC50 value while H represents a concentration 5 times greater than the anti-proliferative IC50 value. GDA (500 nM) represents a positive control, while DMSO (0), vehicle, serves as the negative control. […]

[2] = tested on: MCF-7 (estrogen receptor positive breast cancer cells); assay: Anti-proliferative activity against MCF-7 cells; format: cell-based; settings: mean ± SD
Protocol: (§1) Once synthesized, the library of coumermycin A1 analogs containing the olefinic and saturated linkers, were evaluated for anti-proliferative activity against SKBr3 (estrogen receptor negative, Her2 over-expressing breast cancer cells), MCF-7 (estrogen receptor positive breast cancer cells), A549 (human lung adenocarcinoma epithelial), HT29 (Human colon adenocarcinoma grade II), and PC3mm2 (androgen receptor insensitive prostate cancer) cell lines. […] As shown, X is at the 6 position and Y is at the 8 position.

[3] = tested on: A549 (human lung adenocarcinoma epithelial); assay: Anti-proliferative activity against A549 cells; format: cell-based
Protocol: as §1, with “lines. The activities produced provide insight into the optimal distance between binding sites and provide rationale for subsequent analog design.” for “lines.”

[4] = tested on: HT29 (Human colon adenocarcinoma grade II); assay: Anti-proliferative activity against HT29 cells; format: cell-based
Protocol: as §1, with “lines. The activities produced provide insight into the optimal distance between binding sites and provide rationale for subsequent analog design.” for “lines.”

[5] = tested on: PC3mm2 (androgen receptor insensitive prostate cancer); assay: Anti-proliferative activity against PC3mm2 cells; format: cell-based
Protocol: as §1, with “lines. The activities produced provide insight into the optimal distance between binding sites and provide rationale for subsequent analog design.” for “lines.”

[6] = tested on: SKBr3 (estrogen receptor negative, Her2 over-expressing breast cancer cells); assay: Anti-proliferative activity against SKBr3 cells; format: cell-based; settings: mean ± SD
Protocol: as §1

[7] = tested on: SKBr3, MCF-7, A549, HT29 and PC3mm2 cell lines; assay: Anti-proliferative activity, cell lines not specified; format: cell-based
Protocol: as §1, with “lines. The activities produced provide insight into the optimal distance between binding sites and provide rationale for subsequent analog design.” for “lines.”

[8] = tested on: cancer cells; settings: previously found, background; read-out: IC50 against cancer cells (anti-proliferative activity); cited from earlier work
[9] = Table 2, read-out: Anti-Proliferation Activities of non-Noviosylated Olefin Dimers, MCF7
[10] = Table 2, read-out: Anti-Proliferation Activities of non-Noviosylated Olefin Dimers, A549
[11] = Table 2, read-out: Anti-Proliferation Activities of non-Noviosylated Olefin Dimers, HT29
[12] = Table 2, read-out: Anti-Proliferation Activities of non-Noviosylated Olefin Dimers, PC3mm2
[13] = Table 2, read-out: Anti-Proliferation Activities of non-Noviosylated Olefin Dimers, SKBr3
[14] = Table 1, at least two experiments in triplicate, read-out: Anti-Proliferation Activities of Noviosylated Olefin Dimers, MCF-7
[15] = Table 1, at least two experiments in triplicate, read-out: Anti-Proliferation Activities of Noviosylated Olefin Dimers, SKBr3
[16] = Table 3, read-out: Anti-Proliferation Activities of Saturated Linker Dimers, MCF-7
[17] = Table 3, read-out: Anti-Proliferation Activities of Saturated Linker Dimers, A549
[18] = Table 3, read-out: Anti-Proliferation Activities of Saturated Linker Dimers, HT29
[19] = Table 3, read-out: Anti-Proliferation Activities of Saturated Linker Dimers, PC3mm2
[20] = Table 3, read-out: Anti-Proliferation Activities of Saturated Linker Dimers, SKBr3
[21] = Table 4, read-out: Anti-Proliferation Activities of Biaryl Dimers, MCF-7
[22] = Table 4, read-out: Anti-Proliferation Activities of Biaryl Dimers, SKBr3

Cc1c(OCCCN(C)C)ccc2cc(NC(=O)C/C=C/CC(=O)Nc3cc4ccc(OCCCN(C)C)c(C)c4oc3=O)c(=O)oc12 [Compound 36]
degradation of HSP90 client proteins (Her-2, Raf, Akt), Western blot [1]: no activity against HSP90 client proteins | IC50 [2, 9]: 0.84 µM | IC50 [3, 10]: 19.4 µM | IC50 [4, 11]: 12.2 µM | IC50 [5, 12]: 15.2 µM | IC50 [6, 13]: 0.46 ± 0.02 µM

COc1cc2cc(NC(=O)C/C=C/CC(=O)Nc3cc4cc(OC)c(OC5CCN(C)CC5)c(C)c4oc3=O)c(=O)oc2c(C)c1OC1CCN(C)CC1 [Compound 27]
IC50 [2, 9]: 0.56 ± 0.05 µM | IC50 [3, 10]: 0.55 µM | IC50 [5, 12]: 0.17 µM | IC50 [6, 13]: 0.27 ± 0.01 µM

Cc1c(OC2CCN(C)CC2)ccc2cc(NC(=O)CCCC/C=C/CCCCC(=O)Nc3cc4ccc(OC5CCN(C)CC5)c(C)c4oc3=O)c(=O)oc12 [Compound 35]
IC50 [2, 9]: 0.73 ± 0.1 µM | IC50 [6, 13]: 0.51 ± 0.06 µM

Cc1c(OC2CCN(C)CC2)ccc2cc(NC(=O)CC/C=C/CCC(=O)Nc3cc4ccc(OC5CCN(C)CC5)c(C)c4oc3=O)c(=O)oc12 [Compound 29]
IC50 [2, 9]: 0.27 ± 0.02 µM | IC50 [3, 10]: 5.54 µM | fold more active than the 10-carbon linker (Compound 32) ([7]; 8-methyl coumarin series, versus Compound 32): 2-3 fold | IC50 [4, 11]: 0.05 µM | IC50 [5, 12]: 4.19 µM | IC50 [6, 13]: 0.15 ± 0.01 µM

COc1cc2cc(NC(=O)CC=CCC(=O)Nc3cc4cc(OC)c(OC5OC(C)(C)C(OC)C(O)C5O)c(C)c4oc3=O)c(=O)oc2c(C)c1OC1OC(C)(C)C(OC)C(O)C1O (stereo not drawn) [Compound 16]
IC50 [2, 14]: > 100 µM | IC50 [6, 15]: > 100 µM

Cc1c(OC2CCN(C)CC2)ccc2cc(NC(=O)CCCCCCC(=O)Nc3cc4ccc(OC5CCN(C)CC5)c(C)c4oc3=O)c(=O)oc12 [Compound 43]
IC50 [2, 16]: 2.82 ± 0.3 µM | IC50 [3, 17]: 30.4 µM | IC50 [4, 18]: 26.3 µM | IC50 [5, 19]: 13.8 µM | IC50 [6, 20]: 1.19 ± 0.3 µM

COC1C(O)C(O)C(Oc2ccc3cc(NC(=O)CCC=CCCC(=O)Nc4cc5ccc(OC6OC(C)(C)C(OC)C(O)C6O)c(C)c5oc4=O)c(=O)oc3c2C)OC1(C)C (stereo not drawn) [Compound 21]
IC50 [2, 14]: 3.9 ± 0.7 µM | IC50 [6, 15]: 1.5 ± 0.1 µM

COC1C(O)C(O)C(Oc2ccc3cc(NC(=O)c4cccc(-c5cccc(C(=O)Nc6cc7ccc(OC8OC(C)(C)C(OC)C(O)C8O)c(C)c7oc6=O)c5)c4)c(=O)oc3c2C)OC1(C)C (stereo not drawn) [Compound 65]
IC50 [2, 21]: 1.26 ± 0.17 µM | IC50 [6, 22]: 0.86 ± 0.14 µM

COc1cc(C(=O)Nc2cc3ccc(OC4OC(C)(C)C(OC)C(O)C4O)c(C)c3oc2=O)cc(-c2cc(C(=O)Nc3cc4ccc(OC5OC(C)(C)C(OC)C(O)C5O)c(C)c4oc3=O)ccc2OC)c1 (stereo not drawn) [Compound 67]
IC50 [2, 21]: 38 ± 1.5 µM | IC50 [6, 22]: 28.5 ± 4.4 µM

CO[C@@H]1[C@@H](OC(N)=O)[C@@H](O)[C@H](Oc2ccc3c(O)c(NC(=O)c4ccc(O)c(CC=C(C)C)c4)c(=O)oc3c2C)OC1(C)C [novobiocin]
IC50 [8]: ~700 µM

COc1c(OC2OC(C)(C)C(OC)C(O)C2O)ccc2cc(NC(=O)CC=CCC(=O)Nc3cc4ccc(OC5OC(C)(C)C(OC)C(O)C5O)c(OC)c4oc3=O)c(=O)oc12 (stereo not drawn) [Compound 17]
IC50 [2, 14]: > 100 µM | IC50 [6, 15]: 52 ± 7.8 µM

COc1ccc(C(=O)Nc2cc3ccc(OC(C)=O)c(C)c3oc2=O)cc1-c1cc(C(=O)Nc2cc3ccc(OC(C)=O)c(C)c3oc2=O)ccc1OC [Compound 73]
IC50 ([2]; Table 5, read-out: Anti-Proliferation Activities Non-Noviosylated Biaryl Dimers, MCF-7): > 100 µM | fold less active than the corresponding noviosylated coumarin-containing analogs (Compounds 65-70) ([7]; versus Compounds 65-70): ~10 fold | IC50 ([6]; Table 5, read-out: Anti-Proliferation Activities Non-Noviosylated Biaryl Dimers, SKBr3): 11.8 ± 0.8 µM

Cc1c(OC2CCN(C)CC2)ccc2cc(NC(=O)CCCCCCCCC(=O)Nc3cc4ccc(OC5CCN(C)CC5)c(C)c4oc3=O)c(=O)oc12 [Compound 44]
IC50 [2, 16]: 3.68 ± 0.4 µM | IC50 [3, 17]: 13.2 µM | IC50 [4, 18]: 3.9 µM | IC50 [5, 19]: 10.2 µM | IC50 [6, 20]: 2.84 ± 0.1 µM
